The values that follow come from US9751881B2, “Inhibitors of the renal outer medullary potassium channel” (Merck Sharp & Dohme Corp., priority 2013, dated 2017).

Structures can show the parent of a compound that is named as a salt.

Chain of hROMK (hKir1.1) (P48048 whole entry): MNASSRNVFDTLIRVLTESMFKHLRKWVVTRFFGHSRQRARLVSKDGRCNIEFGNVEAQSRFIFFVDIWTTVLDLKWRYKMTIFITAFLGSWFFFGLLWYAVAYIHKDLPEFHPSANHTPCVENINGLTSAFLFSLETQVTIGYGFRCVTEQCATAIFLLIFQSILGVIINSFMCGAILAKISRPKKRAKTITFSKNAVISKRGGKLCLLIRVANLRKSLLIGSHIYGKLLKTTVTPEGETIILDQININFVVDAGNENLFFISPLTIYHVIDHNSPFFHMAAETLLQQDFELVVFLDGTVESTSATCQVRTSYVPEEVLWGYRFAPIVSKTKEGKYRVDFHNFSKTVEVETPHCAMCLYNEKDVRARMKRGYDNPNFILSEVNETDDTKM

This assay addresses hROMK (hKir1.1) (Homo sapiens (Human), UniProt P48048). As to the kind of experiment: Thallium Flux Assay (ROMK channel functional thallium flux, FLIPR-Tetra). The class given is cell-based. Conditions: HEK293 cells stably expressing hROMK (hKir1.1); unit not given in Table 4 (IC50 potencies less than 1 μM); read-out: ROMK TI IC50. The protocol:
Cell Culture Conditions—HEK293 cells stably expressing hROMK (hKir1.1) were grown at 37° C. in a 10% CO2 humidified incubator in complete growth media: Dulbecco's Modified Eagle Medium supplemented with non-essential amino acids, Penicillin/Streptomycin/Glutamine, G418 and FBS. At >80% confluency, the media was aspirated from the flask and rinsed with 10 mL calcium/magnesium-free PBS. […] To dislodge the cell, the side of the flask was gently banged with one's hand. The cells completely titrated and then the cells were transferred to 25 mL complete media, centrifuged at 1,500 rpm for 6 min followed by resuspension in complete growth media and determine cell concentration. […] Under ideal growth conditions and appropriate tissue culture practices, this cell line is stable for 40-45 passages.
FluxOR Kit Components (Invitrogen F10017)
• FluxOR™ Reagent (Component A) • FluxOR™ Assay Buffer (Component B)—10× Concentrate • PowerLoad™ Concentrate (Component C)—100× Concentrate • Probenecid (Component D)—Lyophilized sample is kept at −20° C. Water soluble, 100× after solubilization in 1 mL water. […] Store at 4° C. • Thallium sulfate (Tl2SO4) Concentrate (Component G)—50 mM in water. […] Can be stored at room temperature • Stimulant Buffer (prepared at 5× final concentration in 1× FluxOR™Chloride-Free Buffer): 7.5 mM thallium sulfate and 0.75 mM potassium sulfate (to give a final assay concentration of 3 mM Thallium/0.3 mM potassium). Store at 4° C. when not in use. If kept sterile, this solution is good for months.
• 1. Seed HEK-hKir1.1 cells (50 μl at 20,000 cells/well) in 384-well PDL coated Microplates • 2. Allow cells to adhere overnight in humidified 37° C./10% CO2 incubator • 3. Completely remove cell growth media from microplate and replace with 25 μl loading buffer • 4. Incubate Microplate at room temperature, protected form light, for 90 min • 5. Remove loading buffer and replace with 25 μl 1× Assay Buffer±test compound. • 6. Incubate microplate at room temperature, protected from light, for 30 min • 7. […] Excitation=400 nm, Emission=460 & 580 nm. Collect data for ˜10 min.
Data Calculation—The fluorescence intensity of wells containing 3 μM of a standard control ROMK inhibitor of the present invention was used to define the ROMK-sensitive component of thallium flux. Fluorescence in the presence of test compounds was normalized to control values to provide % fluorescence change.
What is called IC50 is the point on the concentration scale where inhibition reaches its midpoint. In the case of `Cc1c([C@@H](O)CN2CCC3(CC2)CCN(c2cccc(C#N)c2)C3)ccc2c1COC2=O` [Example 89], the IC50 worked out at 118 nM.

For the molecule `CCS(=O)(=O)c1ccc(N2CCC3(CCN(C[C@H](O)c4ccc5c(c4C)COC5=O)CC3)C2)cn1` [Example 30, (R)-5-(2-(2-(6-(Ethylsulfonyl)pyridin-3-yl)-2,8-diazaspiro[4.5]decan-8-yl)-1-hydroxyethyl)-4-methylisobenzofuran-1(3H)-one], the half-inhibitory concentration (IC50) worked out at 271 nM.

For `Cc1c([C@@H](O)CN2CCC3(CC2)CN(c2ccc(C#N)cn2)C3)ccc2c1COC2=O` [Example 45, (R)-6-(7-(2-Hydroxy-2-(4-methyl-1-oxo-1,3-dihydroisobenzofuran-5-yl)ethyl)-2,7-diazaspiro[3.5]nonan-2-yl)nicotinonitrile], the IC50 came to 104 nM.

For `Cc1c([C@@H](O)CN2C3CCC2CC2(CC(=O)N(c4ccc(C#N)cn4)C2)C3)ccc2c1COC2=O` (stereo partly drawn) [Example 29, 6-(8-((R)-2-Hydroxy-2-(4-methyl-1-oxo-1,3-dihydroisobenzofuran-5-yl)ethyl)-5′-oxo-8-azaspiro[bicyclo[3.2.1]octane-3,3′-pyrrolidin]-1′-yl)nicotinonitrile], the half-inhibitory concentration (IC50) was 198 nM.

`N#Cc1ccc(N2CCC3(CCN(CC4OCCc5c4ccc4c5COC4=O)CC3)C2)nc1` (stereo not shown) [Example 27, 6-(8-((3-oxo-3,6,8,9-tetrahydro-1H-furo[3,4-f]isochromen-6-yl)methyl)-2,8-diazaspiro[4.5]decan-2-yl)nicotinonitrile]: the half-maximal inhibitory concentration (IC50) was 103 nM.

Take `Cc1c([C@@H](O)CN2CCC3(CC2)CC(=O)N(c2ncc(S(C)(=O)=O)s2)C3)ccc2c1COC2=O` [Example 37, (R)-8-(2-Hydroxy-2-(4-methyl-1-oxo-1,3-dihydroisobenzofuran-5-yl)ethyl)-2-(5-(methylsulfonyl)thiazol-2-yl)-2,8-diazaspiro[4.5]decan-3-one]: the IC50 stood at 87.5 nM.

As for `CCS(=O)(=O)c1cnc(N2CC3(CCN(C[C@H](O)c4ccc5c(c4C)COC5=O)CC3)CC2=O)cn1` [Example 68, 2-[5-(Ethylsulfonyl)pyrazin-2-yl]-8-[(2R)-2-hydroxy-2-(4-methyl-1-oxo-1,3-dihydro-2-benzofuran-5-yl)ethyl]-2,8-diazaspiro[4.5]decan-3-one hydrochloride], the IC50 was found to be 127 nM.

Turning to `Cc1c([C@@H](O)CN2CCC3(CC2)CC(=O)N(c2ccc(S(=O)(=O)C4CC4)cc2)C3)ccc2c1COC2=O` [Example 70, 2-[4-(Cyclopropylsulfonyl)phenyl]-8-[(2R)-2-hydroxy-2-(4-methyl-1-oxo-1,3-dihydro-2-benzofuran-5-yl)ethyl]-2,8-diazaspiro[4.5]decan-3-one hydrochloride], the IC50 was 248 nM.

With `Cc1nc(N2CCC3(CCN(CC(O)c4ccc5c(c4C)COC5=O)CC3)CC2)ccc1C#N` (stereo not shown) [Example 114], the concentration for half-maximal inhibition (IC50) was 136 nM.

Regarding `C=CCN[C@@H](CN1CCC2(CC1)CCN(c1ccc(C#N)cn1)C2)c1ccc2c(c1C)COC2=O` [Example 78, (R)-6-(8-(2-(allylamino)-2-(4-methyl-1-oxo-1,3-dihydroisobenzofuran-5-yl)ethyl)-2,8-diazaspiro[4.5]decan-2-yl)nicotinonitrile], the half-inhibitory concentration (IC50) came to 70.6 nM.

As for `Cc1c([C@@H](O)CN2CCC3(CC2)CCN(c2ccc(S(C)(=O)=O)nc2)CC3)ccc2c1COC2=O` [Example 103, (R)-5-(1-hydroxy-2-(9-(6-(methylsulfonyl)148yridine-3-yl)-3,9-diazaspiro[5.5]undecan-3-yl)ethyl)-4-methylisobenzofuran-1(3H)-one], the 50% inhibitory concentration (IC50) stood at 563 nM.

Consider `Cc1c([C@@H](O)CN2CCC3(CC2)CCN(c2nnc(S(C)(=O)=O)s2)C3=O)ccc2c1COC2=O` [Example 76, 8-[(2R)-2-Hydroxy-2-(4-methyl-1-oxo-1,3-dihydro-2-benzofuran-5-yl)ethyl]-2-[5-(methylsulfonyl)-1,3,4-thiadiazol-2-yl]-2,8-diazaspiro[4.5]decan-1-one hydrochloride], for which the IC50 is 100 nM.

Turning to `Cc1c([C@@H](O)CN2CCC3(CC2)CN(c2ccc(C#N)cn2)CCO3)ccc2c1COC2=O` [Example 101, (R)-6-(9-(2-Hydroxy-2-(4-methyl-1-oxo-1,3-dihydroisobenzofuran-5-yl)ethyl)-1-oxa-4,9-diazaspiro[5.5]undecan-4-yl)nicotinonitrile], the concentration for half-maximal inhibition (IC50) was determined as 39.6 nM.

`Cc1c([C@@H](O)CN2CCC3(CC2)CCN(c2cnc(S(C)(=O)=O)cn2)C3=O)ccc2c1COC2=O` [Example 42, (R)-8-(2-Hydroxy-2-(4-methyl-1-oxo-1,3-dihydroisobenzofuran-5-yl)ethyl)-2-(5-(methylsulfonyl)pyrazin-2-yl)-2,8-diazaspiro[4.5]decan-1-one]: the IC50 worked out at 216 nM.

Turning to `COc1cc(N2CCC3(CCN(C[C@H](O)c4ccc5c(c4C)COC5=O)CC3)C2)ncc1C#N` [Example 7, (R)-6-(8-(2-Hydroxy-2-(4-methyl-1-oxo-1,3-dihydroisobenzofuran-5-yl)ethyl)-2,8-diazaspiro[4.5]decan-2-yl)-4-methoxynicotinonitrile], the IC50 amounted to 21.5 nM.

Turning to `Cc1c([C@@H](O)CN2CCC3(CC2)CCN(c2cnc(S(C)(=O)=O)cn2)C3)ccc2c1COC2=O` [Example 33, (R)-5-(1-Hydroxy-2-(2-(5-(methylsulfonyl)pyrazin-2-yl)-2,8-diazaspiro[4.5]decan-8-yl)ethyl)-4-methylisobenzofuran-1(3H)-one], the concentration for half-maximal inhibition (IC50) is 44.1 nM.

Take `COc1cc(N2CC3(CCN(C[C@H](O)c4ccc5c(c4C)COC5=O)CC3)C2)ncc1C#N` [Example 50, (R)-6-(7-(2-hydroxy-2-(4-methyl-1-oxo-1,3-dihydroisobenzofuran-5-yl)ethyl)-2,7-diazaspiro[3.5]nonan-2-yl)-4-methoxynicotinonitrile]: the IC50 worked out at 42.4 nM.

`Cc1c([C@@H](O)CN2CCC3(CC2)CC(=O)N(c2ccc(-n4cnnn4)nc2)C3)ccc2c1COC2=O` [Example 72, 8-[(2R)-2-Hydroxy-2-(4-methyl-1-oxo-1,3-dihydro-2-benzofuran-5-yl)ethyl]-2-[6-(1H-tetrazol-1-yl)pyridin-3-yl]-2,8-diazaspiro[4.5]decan-3-one hydrochloride]: the IC50 is 100 nM.

As to `Cc1c([C@@H](O)CN2CCC3(CC2)CCN(c2ccc(C#N)nc2)C3)ccc2c1COC2=O` [Example 87], the IC50 is 88.7 nM.

With `COc1cc(N2CCC3(CCN(C[C@H](O)c4ccc5c(c4C)COC5=O)CC3)C2=O)ncc1C#N` [Example 58, (R)-6-(8-(2-Hydroxy-2-(4-methyl-1-oxo-1,3-dihydroisobenzofuran-5-yl)ethyl)-1-oxo-2,8-diazaspiro[4.5]decan-2-yl)-4-methoxynicotinonitrile], the IC50 was 49.4 nM.

As for `Cc1c([C@@H](O)CN2CCC3(CC2)CC(=O)N(c2ccc(S(C)(=O)=O)c(F)c2)C3)ccc2c1COC2=O` [Example 67, 2-[3-Fluoro-4-(methylsulfonyl)phenyl]-8-[(2R)-2-hydroxy-2-(4-methyl-1-oxo-1,3-dihydro-2-benzofuran-5-yl)ethyl]-2,8-diazaspiro[4.5]decan-3-one hydrochloride], the IC50 amounted to 68 nM.

Regarding `COc1cc(N2CC3(CCN(C[C@H](O)c4ccc5c(c4C)COC5=O)CC3)CC2=O)ccc1C#N` [Example 16, (R)-4-(8-(2-Hydroxy-2-(4-methyl-1-oxo-1,3-dihydroisobenzofuran-5-yl)ethyl)-3-oxo-2,8-diazaspiro[4.5]decan-2-yl)-2-methoxybenzonitrile], the IC50 is 51 nM.

In the case of `Cc1c([C@@H](O)CN2CCC3(CC2)CCN(c2cc(C#N)ccn2)C3)ccc2c1COC2=O` [Example 13, (R)-2-(8-(2-Hydroxy-2-(4-methyl-1-oxo-1,3-dihydroisobenzofuran-5-yl)ethyl)-2,8-diazaspiro[4.5]decan-2-yl)isonicotinonitrile], the IC50 is 26 nM.

Take `COc1cc(C(O)CN2CCC3(CC2)CCN(c2ccc(S(C)(=O)=O)cn2)C3)c(Cl)cc1C#N` (stereo not shown) [Example 40, 5-Chloro-4-(1-hydroxy-2-(2-(5-(methylsulfonyl)pyridin-2-yl)-2,8-diazaspiro[4.5]decan-8-yl)ethyl)-2-methoxybenzonitrile]: the IC50 is 168 nM.

Regarding `Cc1c([C@@H](O)CN2CCC3(CC2)CCN(c2nnc(S(C)(=O)=O)s2)C3)ccc2c1COC2=O` [Example 62, 5-[(1R)-1-hydroxy-2-{2-[5-(methylsulfonyl)-1,3,4-thiadiazol-2-yl]-2,8-diazaspiro[4.5]dec-8-yl}ethyl]-4-methyl-2-benzofuran-1(3H)-one hydrochloride], the half-maximal inhibitory concentration (IC50) was 210 nM.
